Source: US20140004079A1, “IN VIVO DENDRITIC CELL T[…]” (Agency for Science, Technology and Research, priority 2012, published 2014)
Entries after “also recorded” stand apart in the source; their conditions may differ.

Columns and labels:
Format in all cases: cell-based, human
[1] = test system: sorted APC populations from chronic HBV patients; test: Ex vivo antigen presentation assay: sorted APCs activated overnight, co-cultured with HBsAg-specific TCR redirected T cells, IFN-γ Elispot; conditions: for cross-presentation of circulating HBsAg (T cell activation): mDC, CD14 MN, CD16 MN or B cells of chronic HBV patients, short-term activation, HBsAg-specific TCR transduced T cells
Procedure: Sorted APC populations; CD11c DC, CD141 DC, CD123 pDC, CD14 MN, CD16 MN and CD20 B cells were cultured overnight in media alone or under activating conditions +/−[…] recombinant HBsAg (Kindly provided by DynaVax). Cells were activated with 10 μg/ml polyI:C (TLR-3), 5 μM CpG ODN2216 (TLR-9), 1 μg/ml LPS (TLR-4), 5 μg/ml Imiquimod (TLR-7), 1 μg/ml ssRNA40 (TLR-8) (InvivoGen), 1000 U/ml IFN-α or 1000 U/ml IFN-γ (R&D systems). Following overnight incubation, APC populations were thoroughly washed and transferred to anti-IFN-γ coated Elispot plates and co-cultured with CD8 s183-TCR or s171-TCR redirected T cells at 5:1 E:T ratio (normally 5,000 APCs/well but as low as 1000 CD141 DC/well) for 24 h. APCs pulsed with 5 μg/ml HBs183-91(FLLTRILTI), HBs171-80 (FLGPLLVLQA) or HBc18-27 ([…]) peptide served as positive control for T cell activation. IFN-γ Elispot was performed as described previously in Tan et al 2008, using 5 μg/ml of 1-DIK for capture and 0.5 μg/ml 7B6-1-Biotin plus Streptavidin-ALP for detection (Mabtec) (Tan, A. T, Loggi, E., Boni, C., Chia, A. Gehring, A. J., Sastry, K. S., Goh, V., Fisicaro, P., Andreone, P., Brander, C., et al. 2008. Host ethnicity and virus genotype shape the hepatitis B virus-specific T-cell repertoire. J. Virol 82: 10986-10997). Elispot plates were developed and analyzed using CTL Immunospot analyzer. Cutoff values for positive responses were set according to cumulative data from healthy donors and HLA mismatched chronic HBV responses (data not shown). Wells were considered positive if responses were above 20 spot forming units/50,000 T cells.
APC populations were sorted from 7 HLA-A2+ chronic HBV patients or healthy donors to greater than 98% purity. TCR transduced T cells were then cultured at 5:1 effector:target ratio with each APC population (typically 5,000 APC/well for Elispot and 10,000 APC/well for intracellular cytokine staining) and T cell activation was monitored using IFN-γ intracellular cytokine staining or IFN-γ Elispot. For intracellular cytokine staining, cells were co-cultured overnight in V-bottom 96 well plates in 2 μg/ml brefeldin A. Cells were labeled with viability dye, stained with CD8-Horizon V500 (BD Biosciences) and fixed in cytofix/cytoperm (BD Biosciences). Cells were then stained with IFN-γ-Horizon V450 (BD Biosciences) to monitor T cell activation. As positive control, CD14 MN were pulsed with 5 μg/ml HBs183-91 or HBc18-27 peptide for 1 h and washed. IFN-γ Elispot was performed as described previously using 5 μg/ml of 1-DK1 for capture and 0.5 μg/ml 7B6-1-Biotin plus Streptavidin-ALP for detection (Mabtec). Wells were considered positive if responses were above 20 spot forming units/25,000 T cells. An HLA-A2+ healthy donor was included in each experiment to determine the background for each experiment. HLA-A2− donors were also tested to confirm specificity and restriction of the transduced T cells (data not shown).

[2] = test system: CD14 MN from chronic HBV patients; test: Cross-presentation of in vivo captured HBsAg by monocyte-derived DC from chronic HBV patients, IFN-γ elispot; conditions: moDC activated overnight, s183-TCR and s171-TCR CD8 T cells
Procedure: (§1) CD14+ MN were isolated from healthy donors and chronic HBV patients by FACs sorting or positive selection using CD14 micobeads (greater than 90% purity; Miltenyi Biothech). Purified monocytes were then cultured in RPMI 1640 supplemented with 10% heat-inactivated FBS, 20 mM HEPES, 0.5 mM sodium pyruvate. 100 U/ml penicillin, 100 μg/ml streptomycin, MeM amino acids, Glutamax, MeM nonessential amino acids, 55 μM 2-mercaptoethanol (Invitrogen). GM-CSF+IL-4 moDC were made by culturing CD14 MN in 50 ng/ml (1500 U/ml) IL-4 and 50 ng/ml (750 U/ml) GM-CSF (R&D systems) for 6 d. GM-CSF+IL-15 (R&D Systems) moDC were made by culturing CD14 MN in 100 ng/ml (1500 U/ml) GM-CSF+200 ng/ml IL-15. Half of the media was removed after 3 d and replaced with complete RPMI containing cytokines. After 6 d of incubation, moDC were stained with CD14-PerCp (Miltenyi Biotech), HLA-DR alexa700 (eBioscience), CD80-FITC (BD Bioscience) and CD86-APC (Biolegend) to confirm differentiation.
(§2) Six day moDC were cultured overnight in media alone or activated with 10 μg/ml polyI:C or 0.1 ug/ml LPS (Invivogen)+50 ng/ml soluble HEK-derived CD40L (R&D Systems). Following overnight incubation, moDC were washed three times with HBSS and co-cultured at 2:1 effector:target ratio (10,000 T cells:5000 moDC) with CD8 HBs183-91T or HBs171-80-specific TCR redirected T cells for IFN-γ elispot. […]

healthy donor CD14 MN = test: Cross-presentation by healthy donor CD14 MN loaded with HBV antigen at day zero and differentiated to moDC, IFN-γ elispot; conditions: differentiation alone, antigen captured on day zero
Procedure: as §1, §2

IFN-γ: cytokine, 1000 U/ml for APC activation
cross-presentation of circulating HBsAg (T cell activation) [1]: T cell activation was not observed

Polyinosinic-polycytidylic acid [polyI:C, reference compound]
cross-presentation of exogenously loaded recombinant HBsAg by CD141 DC ([1]; CD141 DC loaded with rHBsAg and stimulated): efficiently cross-presented recombinant HBsAg | activation of CD8 T cells by activated CD141 DC directly ex vivo ([1]; CD141 DC of chronic HBV patients, in vivo captured HBsAg): neither non-activated nor polyI:C activated CD141 DC from chronic HBV patients stimulated CDS T cells; also recorded: neither non-activated nor polyI:C activated CD141 DC from chronic HBV patients activated CD8 T cells | effect of moDC activation on T cell response [2]: increase the T cell response

granulocyte-macrophage colony-stimulating factor [GM-CSF]
cross-presentation of HBV antigen to virus-specific CD8 T cells after differentiation (healthy donor CD14 MN; 3 d): resulted in cross-presentation of HBV antigen

interferon-α [IFN-α]
cross-presentation of circulating HBsAg (T cell activation) [1]: T cell activation was not observed | activation of HBsAg-specific T cells by activated pDC ex vivo ([1]; pDC of chronic HBV patients, in vivo captured HBsAg): Neither resting pDC nor pDC activated with a panel of TLR ligands and IFN-α activated HBsAg-specific T cells; also recorded: none of these conditions resulted in HBsAg-specific T cell activation

B1: IL-32: cytokine, 100 ng/ml IL-32 for 6 d (protein, UniProt P24001 31-234, looked up)
Interleukin-32: AWVSACDTEDTVGHLGPWRDKDPALWCQLCLSSQHQAIERFYDKMQNAESGRGQVMSSLAELEDDFKEGYLETVAAYYEEQHPELTPLLEKERDGLRCRGNRSPVPDVEDPATEEPGESFCDKVMRWFQAMLQRLQTWWHGVLAWVKEKVVALVHAVQALWKQFQSFCCSLSELFMSSFQSYGAPRGDKEELTPQKCSEPQSSK
cross-presentation of HBV antigen to virus-specific CD8 T cells after differentiation (healthy donor CD14 MN; 6 d): resulted in cross-presentation of HBV antigen
